Measurements from PubChem BioAssay AID651652 (NMMLSC, 2012).
Active and inactive are the calls of the source.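 How the source made its calls: active means viability at the highest tested concentration below 50%; inactive means the rest.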

Legend:
[1] = K562 empty-vector cell viability, concentration-response, counterscreen for ABCB6 inhibitor project, CellTiter-Glo luminescence, PowderSet01 powders (AID 651652); details: K562 vector control viability, CellTiter-Glo, 18 h; at 100 µM (top of the series)
[2] = test system: K562 vector control viability, CellTiter-Glo, 18 h; experiment: as above

Row | SMILES | viability [1] | EC50 [2] [µM]
1 | CC(=O)Nc1ccc(NC(=O)c2nc(S(=O)(=O)Cc3ccccc3)ncc2Cl)cc1 | 58% (inactive) | –
2 | CC(=O)Nc1ccc(NC(=O)c2nc(S(=O)(=O)Cc3cccc(C)c3)ncc2Cl)cc1 | 51.9% (inactive) | –
3 | CCc1ccc(NC(=O)c2nc(S(=O)(=O)Cc3ccccc3)ncc2Cl)cc1 | – | 4.51
4 | CCOc1ccccc1NC(=O)c1nc(S(=O)(=O)Cc2cccc(C)c2)ncc1Cl | – | 11.9
